We go through two compounds from US11344496B2, “Methods for preparing stabilized amorphous drug formulations using acoustic fusion” (Merck Sharp & Dohme Corp., priority 2017, dated 2022).

A short description of data set [1]: BCS (Biopharmaceutics Classification System) designation by solubility and permeability. Format: physicochemical. Also noted: key: BCS Class 1 describes compounds with high permeability and high solubility.; BCS Class 2 describes compounds with high permeability and low solubility.; BCS Class 3 describes compounds with low permeability and high solubility.; BCS Class 4 describes compounds with low permeability and low solubility. An excerpt:
We tested a number of model drugs using the acoustic fusion methods, as described infra. The drugs tested are representative BCS Class 2 and Class 4 drugs. The BCS (Biopharmaceutics Classification System) designation is used to group compounds into classes based on their solubility and permeability (BCS guidance “Waiver of In vivo Bioavailability and Bioequivalence Studies for Immediate Release Solid Oral Dosage Forms Based on a Biopharmaceutics Classification System,” U.S. Department of Health and Human Services, Food and Drug Administration):
BCS Class 1 describes compounds with high permeability and high solubility.
BCS Class 2 describes compounds with high permeability and low solubility.
BCS Class 3 describes compounds with low permeability and high solubility.
BCS Class 4 describes compounds with low permeability and low solubility.
Under the BCS Classification System, a drug is considered highly soluble if fully solubilized in 250 mL water at the highest therapeutic dose at any physiological pH. A drug is considered highly permeable if the extent of oral absorption is greater than 90%.

Data set [2] is described as follows: Rat oral pharmacokinetic study of torcetrapib formulations. Format: in vivo. Conditions: male, Wistar-Han, plasma, rats, 10 mg/kg. On the procedure:
The in vivo absorption of Torcetrapib after oral administration of the Torcetrapib-copovidone-TPGS dispersion described in Example 4 was investigated in rats at a dose level of 10 mg/kg. Materials and methods used for the rat pharmacokinetic study are provided below. Crystalline drug powders and drug-polymer dispersion formulations were also evaluated as control formulations. The drug powders and drug-polymer dispersions were dosed as suspensions in 0.5% of methylene cellulose. The Torcetrapib-polymer dispersion was used as a benchmark formulation for enhancing the drug's solubility and oral absorption.
Male Wistar-Han rats were used for oral administration studies. All animals were fasted overnight before dosing, provided water ad libitum, and fed 4 hours following drug treatment. The fasted animals were orally given torcetrapib formulations by gavage (n=3) at a torcetrapib dose of 10 mg/kg. The formulations included a suspension of crystalline torcetrapib powder in 0.5% of methyl cellulose (MC), a suspension of torcetrapib-polymer dispersion in 0.5% of acidified MC (5 mM HCl added to prevent dissolution of the polymer in the vehicle). Serial blood samples were collected at 0.25, 0.5, 1, 2, 4, 8, 12, 18, and 24 hour post-dose and placed into EDTA-containing tubes and centrifuged. […]
Torcetrapib plasma concentrations were determined by LC-MS/MS following protein precipitation with acetonitrile. […] Analyte response was measured by multiple reaction monitoring (MRM) of transitions unique to each compound.
Calibration curves were generated and verified using standard and quality control samples prepared from an initial weighing of high purity compound. […] The limit of quantification was 1 ng/mL. […]
Pharmacokinetic parameters were calculated by established non-compartmental methods. The area under the plasma concentration vs. time curve from time zero to time t(AUC0-t) was determined using the Watson software (version 7.3) with linear trapezoidal interpolation in the ascending slope and logarithmic trapezoidal interpolation in the descending slope.

As for `CCOC(=O)N1c2ccc(C(F)(F)F)cc2[C@@H](N(Cc2cc(C(F)(F)F)cc(C(F)(F)F)c2)C(=O)OC)C[C@H]1CC` [Torcetrapib, (2R,4S)-4-[(3,5-Bis-trifluoromethylbenzyl)methoxycarbonylamino]-2-ethyl-6-trifluoromethyl-3,4-dihydro-2H-quinoline-1-carboxylic acid ethyl ester], the “BCS Class” value in data set [1] is “BCS Class 2”. In addition, the Tmax – broadly, the time from dosing to the highest level – in data set [2] (mean n = 3) is 6 h. For the same compound, the AUC(0-t) in data set [2] (mean n = 3, read-out: AUC(0-24)) came out at 0.707 µM·h. For the same compound, the highest level in data set [2] (suspension in 0.5% methyl cellulose, mean n = 3) (Cmax) was 84 nM.

Take `Cc1cccc(C)c1OCC(=O)N[C@@H](Cc1ccccc1)[C@@H](O)C[C@H](Cc1ccccc1)NC(=O)[C@H](C(C)C)N1CCCNC1=O` [Lopinavir, (αS)—N-[(1S,3S,4S)-4-[[2-(2,6-Dimethylphenoxy)acetyl]amino]-3-hydroxy-5-phenyl-1-(phenylmethyl)pentyl]tetrahydro-α-(1-methylethyl)-2-oxo-1(2H)-pyrimidineacetamide]: the “BCS Class” value in data set [1] is given as “BCS class 2”.
